The values that follow come from ChEMBL document CHEMBL3046925, “,-Dibromoacetophenones mediated synthesis of some new 7H-7-alkoxy-3-alkyl/phenyl-6-aryl-s-triazolo[3,4-b][1,3,4]thiadiazines and their antimicrobial evaluation” (2012).

Molecules are shown by their SMILES. In brackets after ≈: the same amount, converted by molar mass. Activity calls are given as the source filed them. No cut-off for these calls is given here.

Assay [1] deals with Saccharomyces cerevisiae. Description: Antimicrobial activity against Saccharomyces cerevisiae MTCC 170 after 24 hr by two-fold serial dilution method. In kind it is functional.
Assay [2] relates to Saccharomyces cerevisiae. Put plainly: Antimicrobial activity against Saccharomyces cerevisiae MTCC 170 at 2 mg/ml after 24 hr by agar well diffusion method. In kind it is functional. The following applies: for zone of inhibition at 2000 µg/mL: MTCC 170, 24 h, read-out: DIZ.
Assay [3] deals with Staphylococcus aureus. Description: Antimicrobial activity against Staphylococcus aureus MTCC 96 at 2 mg/ml after 24 hr by agar well diffusion method. The format is functional. The following applies: MTCC 96, 24 h, read-out: DIZ. (A growth-free zone around the sample is the usual read-out of agar diffusion tests.)
The subject of assay [4] is Candida albicans. Put plainly: Antimicrobial activity against Candida albicans MTCC 227 at 2 mg/ml by two-fold serial dilution method. In kind it is functional.
Assay [5] concerns Bacillus subtilis. Put plainly: microbe, parasite or virus in culture. The settings on record: MTCC 121, 24 h. In kind it is functional.
Description: Antimicrobial activity against Bacillus subtilis MTCC 121 at 2 mg/ml after 24 hr by two-fold serial dilution method
Assay [6] relates to Escherichia coli. Description: Antimicrobial activity against Escherichia coli MTCC 1652 at 2 mg/ml after 24 hr by agar well diffusion method. The format is functional, organism-based.
Assay [7] relates to Staphylococcus aureus. Put plainly: Antimicrobial activity against Staphylococcus aureus MTCC 96 after 24 hr by two-fold serial dilution method. In kind it is functional. The settings on record: MTCC 96, 24 h.
In assay [8] the test system is Bacillus subtilis. Put plainly: microbe, parasite or virus in culture. In kind it is functional. The following applies: MTCC 121, 24 h, read-out: DIZ.
Description: Antimicrobial activity against Bacillus subtilis MTCC 121 at 2 mg/ml after 24 hr by agar well diffusion method
In assay [9] the test system is Pseudomonas aeruginosa. Put plainly: Antimicrobial activity against Pseudomonas aeruginosa MTCC 741 at 2 mg/ml after 24 hr by agar well diffusion method. The format is functional, organism-based.
In assay [10] the test system is Candida albicans. Put plainly: Antimicrobial activity against Candida albicans MTCC 227 at 2 mg/ml by agar well diffusion method. In kind it is functional. The following applies: for zone of inhibition at 2000 µg/mL: read-out: DIZ.

Turning to `CCCc1nnc2n1N=C(c1ccccc1)C(OCC)S2` (stereo not given), the MIC result in assay [1] and in assay [4] was “inactive” each time. Moreover, the “diameter of the inhibition zone (DIZ)” value in assay [2] and in [10] was “inactive” in each case. In addition, the figures for the zone of inhibition at 2000 µg/mL in assay [3] and in [8] were 13.6 mm and 17.6 mm, respectively. The MIC in assay [5] was 128 µg/mL (≈ 423 µM); in assay [7], 256 µg/mL (≈ 847 µM). Besides, the outcome in [6] and in assay [9] was inactive.

Turning to `CCOC1Sc2nnc(CC)n2N=C1c1ccccc1` (stereo not given), the MIC entry in assay [1] and in assay [4] was “inactive” throughout. Further, the “diameter of the inhibition zone (DIZ)” value in assay [2] and in assay [10] was “inactive” throughout. In addition, the zone of inhibition at 2000 µg/mL in assay [3] worked out at 13.6 mm; in assay [8], 18.3 mm. Moreover, the figures for the MIC in assay [5] and in [7] were 64 µg/mL (≈ 222 µM) and 256 µg/mL (≈ 888 µM), respectively. In addition, the result in assay [6] and in assay [9] was inactive.

In the case of `CC(C)OC1Sc2nncn2N=C1c1ccccc1` (stereo not given), the MIC in [1] (MTCC 170, 24 h) is 128 µg/mL (≈ 467 µM); in [5], 256 µg/mL (≈ 933 µM); in [7] it was 256 µg/mL (≈ 933 µM). Further, the zone of inhibition at 2000 µg/mL in assay [2] stood at 13.3 mm; in assay [3] it was 14.6 mm; in [8], 13.6 mm. In assay [4], the MIC result is “inactive”. Besides, the result in assay [6] and in assay [9] was inactive. In assay [10], the “diameter of the inhibition zone (DIZ)” value is “inactive”.

Take `CCOC1Sc2nnc(CC)n2N=C1c1ccc(C)cc1` (stereo not given): the MIC is more than 256 µg/mL in assay [1] (MTCC 170, 24 h); 128 µg/mL (≈ 423 µM) in assay [5]; more than 256 µg/mL in [7]. In addition, the zone of inhibition at 2000 µg/mL was 10.6 mm in [2], 12.3 mm in [3] and 17 mm in assay [8]. Further, the MIC entry in assay [4] was “inactive”. For the same molecule, the outcome in assay [6] and in [9] was inactive. Further, in [10], the “diameter of the inhibition zone (DIZ)” value was “inactive”.

As for `CCc1nnc2n1N=C(c1ccccc1)C(OC)S2` (stereo not given), the MIC came to 64 µg/mL (≈ 233 µM) in assay [1] (MTCC 170, 24 h); 64 µg/mL (≈ 233 µM) in [4]; 32 µg/mL (≈ 117 µM) in assay [5]; 32 µg/mL (≈ 117 µM) in [7]. The zone of inhibition at 2000 µg/mL in [2] turned out to be 15.3 mm; in assay [3] it was 22.3 mm; in assay [8], 21.6 mm; in [10] it was 16.3 mm. Moreover, the result in [6] and in assay [9] was inactive.

For the molecule `CCc1nnc2n1N=C(c1ccc(Cl)cc1)C(OC(C)C)S2` (stereo not given), the MIC in assay [1] (MTCC 170, 24 h) is more than 256 µg/mL; in [5], more than 256 µg/mL; in assay [7], more than 256 µg/mL. The zone of inhibition at 2000 µg/mL was 11.3 mm in [2], 11.3 mm in assay [3] and 12.3 mm in [8]. Besides, the MIC result in [4] was “inactive”. Further, the outcome in assay [6] and in assay [9] was inactive. The “diameter of the inhibition zone (DIZ)” value in assay [10] is “inactive”.

In the case of `CCCOC1Sc2nnc(CC)n2N=C1c1ccc(Cl)cc1` (stereo not given), the MIC was more than 256 µg/mL in [1] (MTCC 170, 24 h); 128 µg/mL (≈ 380 µM) in assay [5]; more than 256 µg/mL in assay [7]. For the same molecule, the zone of inhibition at 2000 µg/mL in assay [2] is 10.3 mm; in assay [3], 12.6 mm; in assay [8] it was 16.3 mm. Also, the MIC entry in assay [4] was “inactive”. Also, the result in assay [6] and in assay [9] was inactive. In addition, the “diameter of the inhibition zone (DIZ)” value in assay [10] was “inactive”.

As to `COC1Sc2nncn2N=C1c1ccccc1` (stereo not given), the MIC in assay [1] (MTCC 170, 24 h) was found to be 128 µg/mL (≈ 520 µM); in assay [4], 128 µg/mL (≈ 520 µM); in assay [5], 64 µg/mL (≈ 260 µM); in assay [7], 64 µg/mL (≈ 260 µM). Moreover, the zone of inhibition at 2000 µg/mL in assay [2] is 13.6 mm; in [3], 19.6 mm; in assay [8], 18.6 mm; in assay [10], 13.3 mm. Further, the outcome in assay [6] and in assay [9] was inactive.

As for `COC1Sc2nnc(-c3ccccc3)n2N=C1c1ccccc1` (stereo not given), the MIC in [1] (MTCC 170, 24 h) is 32 µg/mL (≈ 99.3 µM); in [5] it was 64 µg/mL (≈ 199 µM); in assay [7], 16 µg/mL (≈ 49.6 µM). Further, the zone of inhibition at 2000 µg/mL amounted to 18.6 mm in assay [2], 25.6 mm in [3] and 18 mm in [8]. Further, the MIC result in assay [4] is “inactive”. Also, the outcome in [6] and in [9] was inactive. Also, in assay [10], the “diameter of the inhibition zone (DIZ)” value is “inactive”.

Turning to `CCCOC1Sc2nncn2N=C1c1ccccc1` (stereo not given), the MIC result in assay [1] and in assay [4] was “inactive” in each case. Moreover, the “diameter of the inhibition zone (DIZ)” value in assay [2] and in assay [10] was “inactive” throughout. Moreover, the zone of inhibition at 2000 µg/mL in assay [3] was found to be 15.6 mm; in assay [8], 18.3 mm. Further, the MIC was 64 µg/mL (≈ 233 µM) in assay [5] and 128 µg/mL (≈ 467 µM) in assay [7]. The result in [6] and in [9] was inactive.

As for `CCOC1Sc2nnc(-c3ccccc3)n2N=C1c1ccccc1` (stereo not given), the MIC stood at 32 µg/mL (≈ 95.1 µM) in [1] (MTCC 170, 24 h); 64 µg/mL (≈ 190 µM) in [4]; 128 µg/mL (≈ 380 µM) in [5]; 16 µg/mL (≈ 47.6 µM) in assay [7]. Further, the zone of inhibition at 2000 µg/mL in [2] stood at 17.6 mm; in assay [3], 24.3 mm; in assay [8], 17.6 mm; in assay [10], 15.6 mm. The outcome in assay [6] and in assay [9] was inactive.

`CCCc1nnc2n1N=C(c1ccccc1)C(OC)S2` (stereo not given): the MIC in assay [1] (MTCC 170, 24 h) was 256 µg/mL (≈ 888 µM); in assay [5], 64 µg/mL (≈ 222 µM); in [7] it was 128 µg/mL (≈ 444 µM). The results for the zone of inhibition at 2000 µg/mL in [2], in assay [3] and in assay [8] were 12.6 mm, 16 mm and 18.3 mm, respectively. Moreover, in assay [4], the MIC result was “inactive”. The outcome in assay [6] and in assay [9] was inactive. Also, in assay [10], the “diameter of the inhibition zone (DIZ)” value is “inactive”.

`CCCOC1Sc2nnc(-c3ccccc3)n2N=C1c1ccccc1` (stereo not given): the MIC in assay [1] (MTCC 170, 24 h) came to 64 µg/mL (≈ 183 µM); in assay [5] it was 128 µg/mL (≈ 365 µM); in assay [7], 64 µg/mL (≈ 183 µM). Besides, the zone of inhibition at 2000 µg/mL came out at 17.3 mm in [2], 20.6 mm in assay [3] and 17.3 mm in assay [8]. Besides, in [4], the MIC result is “inactive”. The result in [6] and in assay [9] was inactive. The “diameter of the inhibition zone (DIZ)” value in [10] was “inactive”.

With `CCCc1nnc2n1N=C(c1ccccc1)C(OC(C)C)S2` (stereo not given), the MIC entry in assay [1] and in assay [4] was “inactive” in each case. Further, the “diameter of the inhibition zone (DIZ)” value in [2] and in [10] was “inactive” throughout. Also, the zone of inhibition at 2000 µg/mL in assay [3] turned out to be 12.3 mm; in assay [8], 14.6 mm. The MIC in assay [5] is 256 µg/mL (≈ 809 µM); in assay [7] it was more than 256 µg/mL. Besides, the result in [6] and in assay [9] was inactive.
